US9771334B2, “Triketone compound and preparation method and use thereof” (SHANDONG CYNDA CHEMICAL CO., LTD., priority 2013, dated 2017)

How the values were obtained:
Assay in all cases: Herbicidal activity, pot culture method (primary and secondary screening test)
Format in all cases: in vivo
Conditions in all cases: primary screening, pot culture, 150 g/ha, sprayed at 3-leaf stage, result 15 days later
echinochloa crusgalli = tested on: echinochloa crusgalli
Source text: (§1) This test example is for describing the herbicidal activity inhibition ratio (%) (the dose is 150 g/ha) of the compound with a structure shown in Formula (I). Primary screening test (pot culture method): The test targets are abutilon theophrasti, digitaria sanguinalis, amaranthus retroflexus, echinochloa crusgalli, eclipta prostrata and setaria viridis. Take flowerpots with an inner diameter of 6 cm, put composite soil (vegetable garden soil:seedling matrix=1:2, v/v) into them till 3⁄4 of flowerpot height, directly sow the above six weed targets (budding rate>85%), cover them with 0.2 cm thick soil, and keep them for future use when the weeds grow to 3-leaf stage. Each compound is dissolved in N,N-dimethylformamide at a dose of 150 g/ha and diluted with distilled water into a 0.2 g/L solution. The solution is sprayed through an automatic spray tower. After the solution on weed leaves is aired dry, the flowerpots are moved into a greenhouse for cultivation. The result is investigated 15 days later. By the same method adopted in primary screening test, a secondary screening test is done on some typical compounds, such as: 5, 6, 20, 21, 23, 34, 47, 65, 66, 70 and 91 at a reduced dose, and the test result is compared with mesotrione which is commercially available and has a good herbicidal effect. The test method is same as that adopted in primary screening test. Mesotrione is bought from Hubei […] Chemical Co., Ltd.

amaranthus retroflexus = tested on: amaranthus retroflexus
Source text: as §1

setaria viridis = tested on: setaria viridis
Source text: as §1

abutilon theophrasti = tested on: abutilon theophrasti
Source text: as §1

eclipta prostrata = tested on: eclipta prostrata
Source text: as §1

digitaria sanguinalis = tested on: digitaria sanguinalis
Source text: as §1

Compound | herbicidal activity inhibition ratio (%), Echinochloa crusgalli (echinochloa crusgalli) | herbicidal activity inhibition ratio (%), Amaranthus retroflexus (amaranthus retroflexus) | herbicidal activity inhibition ratio (%), Setaria viridis (setaria viridis) | herbicidal activity inhibition ratio (%), Abutilon theophrasti (abutilon theophrasti) | herbicidal activity inhibition ratio (%), Eclipta prostrata (eclipta prostrata) | herbicidal activity inhibition ratio (%), Digitaria sanguinalis (digitaria sanguinalis)
Cn1c(=O)n(-c2ccc(Cl)cc2)c(=O)c2cc(C(=O)C3=C(O)CCCC3=O)ccc21 [Compound 1, 3-(4-chlorphenyl)-6-[(2-hydroxy-6-oxo-1-cyclohexenyl)carbonyl]-1-methylquinazoline-2,4(1H,3H)-dione] | 90% | 90% | 100% | 90% | 85% | 90%
Cn1c(=O)n(-c2ccc(Cl)cc2)c(=O)c2cc(C(=O)C3=C(O)CC(C)(C)CC3=O)ccc21 [Compound 2] | 80% | 95% | 80% | 100% | 75% | 90%
Cn1c(=O)n(-c2cccc(Cl)c2)c(=O)c2cc(C(=O)C3=C(O)CCCC3=O)ccc21 [Compound 3] | 80% | 100% | 100% | 80% | 80% | 70%
Cn1c(=O)n(-c2cccc(Cl)c2)c(=O)c2cc(C(=O)C3=C(O)CC(C)(C)CC3=O)ccc21 [Compound 4] | 85% | 100% | 90% | 100% | 90% | 100%
Cn1c(=O)n(-c2cc(Cl)cc(Cl)c2)c(=O)c2cc(C(=O)C3=C(O)CCCC3=O)ccc21 [Compound 7] | 80% | 90% | 80% | 100% | 60% | 70%
Cn1c(=O)n(-c2cc(Cl)cc(Cl)c2)c(=O)c2cc(C(=O)C3=C(O)CC(C)(C)CC3=O)ccc21 [Compound 8] | 75% | 100% | 85% | 0% | 80% | 90%
Cn1c(=O)n(-c2ccc(F)cc2)c(=O)c2cc(C(=O)C3=C(O)CCCC3=O)ccc21 [Compound 9] | 85% | 100% | 100% | 100% | 95% | 75%
Cn1c(=O)n(-c2cccc(F)c2)c(=O)c2cc(C(=O)C3=C(O)CCCC3=O)ccc21 [Compound 10] | 85% | 85% | 80% | 100% | 80% | 75%
Cn1c(=O)n(-c2cccc(F)c2)c(=O)c2cc(C(=O)C3=C(O)CC(C)(C)CC3=O)ccc21 [Compound 11] | 85% | 85% | 80% | 85% | 85% | 95%
Cn1c(=O)n(-c2ccccc2F)c(=O)c2cc(C(=O)C3=C(O)CCCC3=O)ccc21 [Compound 12] | 80% | 80% | 100% | 85% | 80% | 80%
Cn1c(=O)n(-c2ccccc2F)c(=O)c2cc(C(=O)C3=C(O)CC(C)(C)CC3=O)ccc21 [Compound 13] | 90% | 100% | 100% | 100% | 90% | 90%
Cc1ccc(-n2c(=O)c3cc(C(=O)C4=C(O)CCCC4=O)ccc3n(C)c2=O)cc1 [Compound 14] | 75% | 100% | 75% | 75% | 75% | 75%
Cc1ccc(-n2c(=O)c3cc(C(=O)C4=C(O)CC(C)(C)CC4=O)ccc3n(C)c2=O)cc1 [Compound 15] | 70% | 70% | 75% | 60% | 60% | 75%
Cc1ccc(-n2c(=O)c3cc(C(=O)C4=C(O)CC(C)CC4=O)ccc3n(C)c2=O)cc1 (stereo not drawn) [Compound 16] | 85% | 70% | 100% | 70% | 75% | 100%
Cc1cccc(-n2c(=O)c3cc(C(=O)C4=C(O)CCCC4=O)ccc3n(C)c2=O)c1 [Compound 17] | 70% | 100% | 100% | 70% | 95% | 75%
Cc1cccc(-n2c(=O)c3cc(C(=O)C4=C(O)CC(C)(C)CC4=O)ccc3n(C)c2=O)c1 [Compound 18] | 70% | 100% | 85% | 75% | 75% | 90%
Cc1cccc(-n2c(=O)c3cc(C(=O)C4=C(O)CC(C)CC4=O)ccc3n(C)c2=O)c1 (stereo not drawn) [Compound 19] | 70% | 100% | 100% | 75% | 85% | 85%
Cn1c(=O)n(-c2ccc(F)cc2)c(=O)c2cc(C(=O)C3=C(O)CC(C)(C)CC3=O)ccc21 [Compound 22] | 80% | 100% | 95% | 100% | 90% | 95%
Cn1c(=O)n(-c2cccc(Br)c2)c(=O)c2cc(C(=O)C3=C(O)CC(C)(C)CC3=O)ccc21 [Compound 24] | 30% | 80% | 10% | 93% | 83% | 60%
Cn1c(=O)n(-c2ccc(Br)cc2)c(=O)c2cc(C(=O)C3=C(O)CCCC3=O)ccc21 [Compound 25] | 80% | 95% | 35% | 80% | 83% | 80%
Cn1c(=O)n(-c2ccc(Br)cc2)c(=O)c2cc(C(=O)C3=C(O)CC(C)(C)CC3=O)ccc21 [Compound 26] | 85% | 100% | 30% | 100% | 88% | 93%
